# Data reported in paper PMC8228600, “Design, Synthesis, In Vitro and In Vivo Evaluation of Heterobivalent SiFAlin-Modified Peptidic Radioligands Targeting Both Integrin αvβ3 and the MC1 Receptor—Suitable for the Specific Visualization of Melanomas?” (Pharmaceuticals, 2021).
# Like-named read-outs stand apart in the source and are kept apart here.
# Tests used:
# [1] = Ex vivo biodistribution in tumor-bearing nude mice (non-tumor tissues); settings: male, Balb/cAnNRj-Foxn1nu/nu (nude), mouse, iv, total radioactivity, ex vivo after PET/CT scan, i.v., n = 3
# Protocol: (§1) For the evaluation of the in vivo pharmacokinetics, the two most promising HBPLs—[^18F]2 with the highest affinity to both target receptors and [^18F]4 with the highest hydrophilicity and still reasonable binding affinities—were selected. For PET/CT imaging, 6-week-old male nude mice (Balb/cAnNRj-Foxn1^nu/nu) were subcutaneously injected with 5 × 10^5 B16F10 cells into the right flank and 2.0–2.5 × 10^6 U87MG cells into the left flank to generate the respective receptor-positive tumors. When the tumors reached a sufficient size for imaging, each mouse was administered 4.15 ± 2.28 MBq of [^18F]2 or 3.95 ± 2.06 MBq of [^18F]4 via the lateral tail vein under isoflurane anesthesia. To determine the receptor specificity of both peptide parts of the labeled HBPLs and their relative contribution to overall tumor uptake, blocking experiments were also performed. […] After i.v. injection of the tracers, a dynamic PET scan, followed by a CT scan, was performed. The resulting PET/CT images and time–activity curves (TACs) are depicted in Figure 6, Figure 7 and Figure 8. After completion of the diagnostic scans, the mice were sacrificed, their organs (blood, spleen, liver, kidney, pancreas, lung, heart, brain, bone, muscle, tail, tumors, stomach, colon and small intestine) were collected and measured in a γ-counter for ex vivo biodistribution (see Supplementary Materials Table S1 for detailed results).
# (§2) Each male nude mouse (six weeks old) was injected subcutaneously with 5 × 10^5 B16F10 cells into the right flank and 2.0–2.5 × 10^6 U87MG cells into the left flank. The health status and tumor growth of the mice were monitored regularly until the animals could be examined after 15–21 days, depending on the tumor size. For the in vivo experiments, the ^18F-radiolabeled compound was diluted in 0.9% saline to give a final EtOH concentration of <10%. Each mouse was injected with 4.15 ± 2.28 MBq of [^18F]2 or 3.95 ± 2.06 MBq of [^18F]4 via the lateral tail vein under isoflurane anesthesia. […] Each ^18F-labeled compound was studied with or without blocking in at least three mice. Mice were measured under isoflurane anesthesia in a small PET/SPECT/CT animal imaging system. First, a dynamic PET scan was performed over 90 min and the scan was framed in 29 timeframes (10 × 1 min, 10 × 2 min, 6 × 5 min, 3 × 10 min). Images were reconstructed using 12 iterations, a maximum likelihood expectation maximization (MLEM) algorithm including corrections for scattered radiation and decay and a voxel size of 0.5 mm. All PET scans were immediately followed by CT acquisition at a voltage of 45 kV and a current of 400 μA. The images were reconstructed using the filtered back projection (FBP) algorithm with a voxel size of 250 μm. The analysis of the data, including the generation of TACs of the kidneys, liver and tumors and the MIPs, was performed via PMOD (v3.8). For ex vivo biodistribution, the mice were sacrificed directly after the PET/CT scan. Organs (blood, spleen, liver, kidneys, pancreas, lungs, heart, brain, bone, muscle, tail, tumors, stomach, colon and small intestine) were collected, weighed and their radioactivity measured in a γ-counter. The percentage injected dose per gram (% ID/g) of each tissue was calculated from the determined values, organ weights, reference values and injected activity.
# [2] = system: MC1R-positive B16F10 tumors; assay: Ex vivo biodistribution: uptake in B16F10 tumors and tumor-to-organ ratios; set-up: species or system nude mice (Balb/cAnNRj-Foxn1nu/nu); settings: NDP blocking (20 μg coinjected); ex vivo after PET/CT scan; i.v.; n = 3
# Protocol: as §1, §2
# [3] = as above; set-up: species or system nude mice (Balb/cAnNRj-Foxn1nu/nu); settings: male, Balb/cAnNRj-Foxn1nu/nu (nude), mouse, iv, total radioactivity; for tissue uptake: B16F10 tumor (MC1R-positive); for tissue to tissue ratio: ex vivo biodistribution, mean (n = 3) ± SD
# Protocol: as §1, §2
# B16F10 and U87MG tumors = assay: In vivo dynamic PET/CT imaging and time–activity curves; set-up: species or system nude mice (Balb/cAnNRj-Foxn1nu/nu)
# Protocol: as §1
# Briefly, 4–5-week-old male nude mice (Balb/cAnNRj-Foxn1^nu/nu) were obtained from Janvier. A dynamic PET scan over 90 min and a subsequent CT image over 20 min were acquired using a triple-modality Bruker Albira II small-animal PET/CT/SPECT scanner. Three animals were studied per group.
# as §2
smiles,measurement,setting,value
CCCC[C@H](NC(=O)CNC(=O)CNC(=O)CCOCCOCCOCCOCCC(=O)NCCCN(CCCNC(=O)CCOCCOCCOCCOCCC(=O)NCCCC[C@@H]1NC(=O)[C@@H](Cc2ccccc2)NC(=O)[C@H](CC(=O)O)NC(=O)CNC(=O)[C@H](CCCNC(=N)N)NC1=O)CC(=O)N[C@@H](CCCCNC(=O)CCC[N+](C)(C)Cc1ccc([Si](F)(C(C)(C)C)C(C)(C)C)cc1)C(N)=O)C(=O)N[C@H]1CC(=O)NCCCC[C@@H](C(N)=O)NC(=O)[C@H](Cc2c[nH]c3ccccc23)NC(=O)[C@H](CCCNC(=N)N)NC(=O)[C@@H](Cc2ccccc2)NC(=O)[C@H](Cc2c[nH]cn2)NC1=O [[^18F]2],tissue uptake at 1.5 h,"[1]; muscle, double blocking (NDP + c(RGDyK)), read-out: ID/g, muscle",0.34 ± 0.07 %ID/g
same,tissue uptake at 1.5 h,"[1]; muscle, without blocking, read-out: ID/g, muscle",4.37 ± 2.58 %ID/g
same,tissue uptake at 1.5 h,"[1]; pancreas, NDP blocking (20 μg coinjected), read-out: ID/g, pancreas",0.8 ± 0.15 %ID/g
same,tissue uptake at 1.5 h,"[1]; pancreas, c(RGDyK) blocking (200 μg coinjected), read-out: ID/g, pancreas",0.36 ± 0.04 %ID/g
same,tissue uptake at 1.5 h,"[1]; pancreas, double blocking (NDP + c(RGDyK)), read-out: ID/g, pancreas",0.55 ± 0.15 %ID/g
same,tissue uptake at 1.5 h,"[1]; pancreas, without blocking, read-out: ID/g, pancreas",0.91 ± 0.29 %ID/g
same,tissue uptake,"[1]; small intestine, NDP blocking (20 μg coinjected), read-out: ID/g, small intestine",2.75 ± 0.36 %ID/g
same,tissue uptake,"[1]; small intestine, c(RGDyK) blocking (200 μg coinjected), read-out: ID/g, small intestine",0.75 ± 0.11 %ID/g
same,tissue uptake,"[1]; small intestine, double blocking (NDP + c(RGDyK)), read-out: ID/g, small intestine",0.9 ± 0.23 %ID/g
same,tissue uptake,"[1]; small intestine, without blocking, read-out: ID/g, small intestine",2.46 ± 1.77 %ID/g
same,tissue uptake,"[1]; spleen, NDP blocking (20 μg coinjected), read-out: ID/g, spleen",2.75 ± 0.55 %ID/g
same,tissue uptake,"[1]; spleen, c(RGDyK) blocking (200 μg coinjected), read-out: ID/g, spleen",0.94 ± 0.19 %ID/g
same,tissue uptake,"[1]; spleen, double blocking (NDP + c(RGDyK)), read-out: ID/g, spleen",1.07 ± 0.32 %ID/g
same,tissue uptake,"[1]; spleen, without blocking, read-out: ID/g, spleen",2.73 ± 0.85 %ID/g
same,tissue uptake,"[1]; stomach, NDP blocking (20 μg coinjected), read-out: ID/g, stomach",1.52 ± 0.31 %ID/g
same,tissue uptake,"[1]; stomach, c(RGDyK) blocking (200 μg coinjected), read-out: ID/g, stomach",0.54 ± 0.04 %ID/g
same,tissue uptake,"[1]; stomach, double blocking (NDP + c(RGDyK)), read-out: ID/g, stomach",0.54 ± 0.12 %ID/g
same,tissue uptake,"[1]; stomach, without blocking, read-out: ID/g, stomach",1.56 ± 0.29 %ID/g
same,tissue uptake at 1.5 h,"[1]; tail, NDP blocking (20 μg coinjected), read-out: ID/g, tail",37.6 ± 8.67 %ID/g
same,tissue uptake at 1.5 h,"[1]; tail, c(RGDyK) blocking (200 μg coinjected), read-out: ID/g, tail",69 ± 3.84 %ID/g
same,tissue uptake,"[1]; tail, double blocking (NDP + c(RGDyK)), read-out: ID/g, tail",53.3 ± 12.8 %ID/g
same,tissue uptake at 1.5 h,"[1]; tail, without blocking, read-out: ID/g, tail",38 ± 14.4 %ID/g
same,"ID/g, B16F10 tumor",[2],1.83 ± 0.24 % ID/g
same,tissue uptake,"[3]; NDP blocking (20 μg coinjected), ex vivo after PET/CT scan, i.v., n = 3",1.83 ± 0.24 %ID/g
same,tissue uptake,"[3]; c(RGDyK) blocking (200 μg coinjected), ex vivo after PET/CT scan, i.v., n = 3",1.98 ± 0.18 %ID/g
same,tissue uptake,"[3]; double blocking (NDP + c(RGDyK)), ex vivo after PET/CT scan, i.v., n = 3",1.14 ± 0.42 %ID/g
same,tissue uptake,"[3]; without blocking, ex vivo after PET/CT scan, i.v., n = 3",2.32 ± 0.49 %ID/g
same,tissue to tissue ratio,"[3]; B16F10 tumor / blood, without blocking, read-out: tumor/blood ratio, B16F10",2.42 ± 0.73
same,tissue to tissue ratio,"[3]; B16F10 tumor / kidneys, without blocking, read-out: tumor/kidneys ratio, B16F10",0.19 ± 0.1
same,tissue to tissue ratio,"[3]; B16F10 tumor / liver, without blocking, read-out: tumor/liver ratio, B16F10",0.16 ± 0.11
same,tissue to tissue ratio,"[3]; B16F10 tumor / muscle, without blocking, read-out: tumor/muscle ratio, B16F10",0.68 ± 0.41
same,tissue uptake at 1.5 h,"[3]; B16F10 tumor, without blocking, ex vivo after PET/CT scan, i.v., n = 3",2.32 ± 0.49 %ID/g
same,visualization of B16F10 and U87MG tumors by PET/CT,"B16F10 and U87MG tumors; PET/CT scans, MIPs 50–90 min post-injection",clearly visualize
same,time at which uptakes in kidneys and liver reached their maximum (TACs),"B16F10 and U87MG tumors; dynamic PET over 90 min, i.v.",5 to 10 min
same,time at which the curves of both tumors approached a plateau (TACs),"B16F10 and U87MG tumors; dynamic PET over 90 min, i.v., B16F10 and U87MG tumors",about 70 min
